Assay results as given in patent publication US20230310428A1, “EGFR INHIBITOR AND PREPARATION METHOD AND USE THEREOF” (HONGYUN BIOTECH CO., LTD., priority 2020, published 2023).

Experiments:
Experiment in all cases: Growth inhibitory activity of compounds on BaF3 cell lines stably transfected with kinase (MTS, 48 h)
Format in all cases: cell-based
[1] = target: T1, various mutants of kinase EGFR (BaF3 cell lines stably transfected with kinase) (Homo sapiens, UniProt P00533); settings: BaF3 cell line stably transfected with EGFR Δ19Del, read-out: Δ19Del growth inhibitory activity IC50
T1 construct: other: BaF3 cells stably transfected with EGFR Δ19Del; MTS, 48 h; other: BaF3 cell line stably transfected with EGFR Δ19Del
Outline: (§1)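 Growth is measured by MTS reduction (OD 490 nm) after 48 h compound exposure at up to 10 µM in 8 steps of 1/3. Inhibition is calculated against a 0.1% DMSO control and cell-free blank, and IC50 is derived from it.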

[2] = target: T2, various mutants of kinase EGFR (BaF3 cell lines stably transfected with kinase) (Homo sapiens, UniProt P00533, C797S/L858R/T790M); settings: BaF3 cell line stably transfected with EGFR L858R/T790M/C797S, read-out: L858R/T790M/ C797S growth inhibitory activity IC50
T2 construct: expressed in transfected cells; host or cells: BaF3
Outline: as §1

[3] = target: T3, various mutants of kinase EGFR (BaF3 cell lines stably transfected with kinase) (Homo sapiens, UniProt P00533, L858R); settings: BaF3 cell line stably transfected with EGFR L858R, read-out: L858R growth inhibitory activity IC50
T3 construct: expressed in transfected cells; host or cells: BaF3
Outline: as §1

[4] = target: T4, various mutants of kinase EGFR (BaF3 cell lines stably transfected with kinase) (Homo sapiens, UniProt P00533, T790M/C797S, form not given); settings: BaF3 cell line stably transfected with EGFR Δ19Del/T790M/C797S, read-out: Δ19Del/T790M/ C797S growth inhibitory activity IC50
T4 construct: other: BaF3 cells stably transfected with EGFR Δ19Del/T790M/C797S; MTS, 48; other: BaF3 cell line stably transfected with EGFR Δ19Del/T790M/C7
Outline: as §1

[5] = target: T5, various mutants of kinase EGFR (BaF3 cell lines stably transfected with kinase) (Homo sapiens, UniProt P00533, L858R/T790M); settings: BaF3 cell line stably transfected with EGFR L858R/T790M, read-out: L858R/ T790M growth inhibitory activity IC50
T5 construct: expressed in transfected cells; host or cells: BaF3
Outline: as §1

[6] = target: T6, various mutants of kinase EGFR (BaF3 cell lines stably transfected with kinase) (Homo sapiens, UniProt P00533, T790M, form not given); settings: BaF3 cell line stably transfected with EGFR Δ19Del/T790M, read-out: Δ19Del/ T790M growth inhibitory activity IC50
T6 construct: other: BaF3 cells stably transfected with EGFR Δ19Del/T790M; MTS, 48 h; other: BaF3 cell line stably transfected with EGFR Δ19Del/T790M; MTS, 48
Outline: as §1

T4 sequence (P00533 with tags, fused parts or gaps DEL746-750/T790M/C797S, form open): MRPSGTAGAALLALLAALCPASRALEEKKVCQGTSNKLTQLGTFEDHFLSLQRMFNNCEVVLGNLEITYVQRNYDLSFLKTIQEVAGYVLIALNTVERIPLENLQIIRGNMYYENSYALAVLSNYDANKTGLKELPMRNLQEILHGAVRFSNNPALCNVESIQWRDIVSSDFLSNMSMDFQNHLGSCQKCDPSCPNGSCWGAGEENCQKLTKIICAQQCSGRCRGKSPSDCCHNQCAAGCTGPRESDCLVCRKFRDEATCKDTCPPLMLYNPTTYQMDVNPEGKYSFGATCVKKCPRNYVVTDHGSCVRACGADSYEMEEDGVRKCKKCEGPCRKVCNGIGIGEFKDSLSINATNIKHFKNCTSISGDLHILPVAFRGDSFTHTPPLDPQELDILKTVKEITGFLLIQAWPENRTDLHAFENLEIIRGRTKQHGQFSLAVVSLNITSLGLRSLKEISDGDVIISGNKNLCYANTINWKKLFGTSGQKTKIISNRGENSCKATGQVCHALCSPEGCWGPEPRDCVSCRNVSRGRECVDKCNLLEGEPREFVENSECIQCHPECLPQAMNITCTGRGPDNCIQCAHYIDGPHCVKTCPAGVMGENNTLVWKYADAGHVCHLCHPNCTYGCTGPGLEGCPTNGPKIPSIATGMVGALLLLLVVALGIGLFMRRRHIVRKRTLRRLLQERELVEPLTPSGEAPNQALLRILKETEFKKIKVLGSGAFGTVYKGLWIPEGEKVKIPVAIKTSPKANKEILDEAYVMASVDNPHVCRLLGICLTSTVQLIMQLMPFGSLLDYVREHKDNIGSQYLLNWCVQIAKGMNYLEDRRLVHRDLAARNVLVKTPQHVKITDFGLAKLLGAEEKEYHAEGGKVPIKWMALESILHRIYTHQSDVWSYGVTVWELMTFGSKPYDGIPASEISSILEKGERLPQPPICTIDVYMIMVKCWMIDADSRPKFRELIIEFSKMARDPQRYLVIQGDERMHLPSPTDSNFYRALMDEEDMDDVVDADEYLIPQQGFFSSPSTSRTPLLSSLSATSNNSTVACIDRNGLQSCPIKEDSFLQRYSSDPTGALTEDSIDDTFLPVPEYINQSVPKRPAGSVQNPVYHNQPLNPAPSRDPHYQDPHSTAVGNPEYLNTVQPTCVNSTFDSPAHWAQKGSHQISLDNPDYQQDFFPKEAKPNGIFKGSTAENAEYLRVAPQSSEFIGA
T5 sequence (P00533 25-1210 T790M/L858R): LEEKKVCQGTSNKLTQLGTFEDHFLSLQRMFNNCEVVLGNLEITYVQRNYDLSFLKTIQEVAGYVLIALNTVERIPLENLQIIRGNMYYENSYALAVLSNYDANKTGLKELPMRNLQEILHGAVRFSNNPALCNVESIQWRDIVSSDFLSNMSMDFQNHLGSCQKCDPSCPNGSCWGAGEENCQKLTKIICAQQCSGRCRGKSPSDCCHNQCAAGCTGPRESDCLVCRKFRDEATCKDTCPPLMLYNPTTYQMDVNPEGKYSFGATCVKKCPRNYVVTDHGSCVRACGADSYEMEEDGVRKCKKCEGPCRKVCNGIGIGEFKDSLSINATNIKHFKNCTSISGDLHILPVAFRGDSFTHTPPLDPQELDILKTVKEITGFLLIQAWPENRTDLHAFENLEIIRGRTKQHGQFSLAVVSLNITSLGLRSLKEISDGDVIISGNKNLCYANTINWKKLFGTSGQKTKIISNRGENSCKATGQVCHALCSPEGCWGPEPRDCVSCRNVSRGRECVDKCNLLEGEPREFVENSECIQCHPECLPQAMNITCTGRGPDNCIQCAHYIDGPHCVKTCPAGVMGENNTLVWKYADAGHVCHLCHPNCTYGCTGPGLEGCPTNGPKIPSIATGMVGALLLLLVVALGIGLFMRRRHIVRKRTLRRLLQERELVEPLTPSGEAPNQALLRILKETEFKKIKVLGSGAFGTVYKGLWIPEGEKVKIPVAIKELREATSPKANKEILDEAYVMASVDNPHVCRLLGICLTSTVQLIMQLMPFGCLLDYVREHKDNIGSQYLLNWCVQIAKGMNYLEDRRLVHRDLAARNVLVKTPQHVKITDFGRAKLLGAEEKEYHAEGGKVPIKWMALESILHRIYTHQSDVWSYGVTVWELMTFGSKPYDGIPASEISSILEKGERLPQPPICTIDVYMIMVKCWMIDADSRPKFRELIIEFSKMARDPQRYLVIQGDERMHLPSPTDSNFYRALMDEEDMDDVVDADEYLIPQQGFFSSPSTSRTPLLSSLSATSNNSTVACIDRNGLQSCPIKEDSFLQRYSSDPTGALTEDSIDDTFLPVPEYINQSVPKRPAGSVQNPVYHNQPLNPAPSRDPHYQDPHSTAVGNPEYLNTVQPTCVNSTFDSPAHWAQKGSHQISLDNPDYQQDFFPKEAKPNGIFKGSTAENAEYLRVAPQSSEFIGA
T2 sequence (P00533 25-1210 T790M/C797S/L858R): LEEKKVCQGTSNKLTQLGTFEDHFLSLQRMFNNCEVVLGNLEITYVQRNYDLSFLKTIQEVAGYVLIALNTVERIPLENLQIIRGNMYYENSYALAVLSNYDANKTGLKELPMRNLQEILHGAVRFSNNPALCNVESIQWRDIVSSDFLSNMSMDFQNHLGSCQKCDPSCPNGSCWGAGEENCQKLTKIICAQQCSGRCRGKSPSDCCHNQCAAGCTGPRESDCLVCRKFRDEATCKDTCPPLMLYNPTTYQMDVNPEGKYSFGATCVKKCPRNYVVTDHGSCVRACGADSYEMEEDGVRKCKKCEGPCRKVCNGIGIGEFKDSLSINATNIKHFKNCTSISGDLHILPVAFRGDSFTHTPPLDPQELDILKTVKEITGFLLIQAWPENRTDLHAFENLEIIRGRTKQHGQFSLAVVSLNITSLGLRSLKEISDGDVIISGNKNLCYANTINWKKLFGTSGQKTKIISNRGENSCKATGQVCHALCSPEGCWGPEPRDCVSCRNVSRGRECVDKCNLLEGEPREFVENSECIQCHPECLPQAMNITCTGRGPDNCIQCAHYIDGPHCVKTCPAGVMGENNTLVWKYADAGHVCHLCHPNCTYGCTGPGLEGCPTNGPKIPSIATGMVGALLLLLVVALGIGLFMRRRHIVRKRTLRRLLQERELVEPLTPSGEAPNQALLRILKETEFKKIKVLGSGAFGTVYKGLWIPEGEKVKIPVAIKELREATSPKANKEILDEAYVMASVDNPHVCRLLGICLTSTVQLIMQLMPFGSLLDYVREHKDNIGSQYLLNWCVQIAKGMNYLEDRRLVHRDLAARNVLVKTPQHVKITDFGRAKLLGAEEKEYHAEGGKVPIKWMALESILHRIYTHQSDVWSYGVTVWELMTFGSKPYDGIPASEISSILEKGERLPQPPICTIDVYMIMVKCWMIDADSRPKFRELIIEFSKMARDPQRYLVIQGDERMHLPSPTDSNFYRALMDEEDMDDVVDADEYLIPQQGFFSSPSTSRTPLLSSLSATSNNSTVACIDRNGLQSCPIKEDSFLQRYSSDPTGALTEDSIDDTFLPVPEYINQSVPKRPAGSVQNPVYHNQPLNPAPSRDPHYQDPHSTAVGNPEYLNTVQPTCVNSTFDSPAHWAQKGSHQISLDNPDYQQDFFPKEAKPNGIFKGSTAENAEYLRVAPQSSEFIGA
T3 sequence (P00533 25-1210 L858R): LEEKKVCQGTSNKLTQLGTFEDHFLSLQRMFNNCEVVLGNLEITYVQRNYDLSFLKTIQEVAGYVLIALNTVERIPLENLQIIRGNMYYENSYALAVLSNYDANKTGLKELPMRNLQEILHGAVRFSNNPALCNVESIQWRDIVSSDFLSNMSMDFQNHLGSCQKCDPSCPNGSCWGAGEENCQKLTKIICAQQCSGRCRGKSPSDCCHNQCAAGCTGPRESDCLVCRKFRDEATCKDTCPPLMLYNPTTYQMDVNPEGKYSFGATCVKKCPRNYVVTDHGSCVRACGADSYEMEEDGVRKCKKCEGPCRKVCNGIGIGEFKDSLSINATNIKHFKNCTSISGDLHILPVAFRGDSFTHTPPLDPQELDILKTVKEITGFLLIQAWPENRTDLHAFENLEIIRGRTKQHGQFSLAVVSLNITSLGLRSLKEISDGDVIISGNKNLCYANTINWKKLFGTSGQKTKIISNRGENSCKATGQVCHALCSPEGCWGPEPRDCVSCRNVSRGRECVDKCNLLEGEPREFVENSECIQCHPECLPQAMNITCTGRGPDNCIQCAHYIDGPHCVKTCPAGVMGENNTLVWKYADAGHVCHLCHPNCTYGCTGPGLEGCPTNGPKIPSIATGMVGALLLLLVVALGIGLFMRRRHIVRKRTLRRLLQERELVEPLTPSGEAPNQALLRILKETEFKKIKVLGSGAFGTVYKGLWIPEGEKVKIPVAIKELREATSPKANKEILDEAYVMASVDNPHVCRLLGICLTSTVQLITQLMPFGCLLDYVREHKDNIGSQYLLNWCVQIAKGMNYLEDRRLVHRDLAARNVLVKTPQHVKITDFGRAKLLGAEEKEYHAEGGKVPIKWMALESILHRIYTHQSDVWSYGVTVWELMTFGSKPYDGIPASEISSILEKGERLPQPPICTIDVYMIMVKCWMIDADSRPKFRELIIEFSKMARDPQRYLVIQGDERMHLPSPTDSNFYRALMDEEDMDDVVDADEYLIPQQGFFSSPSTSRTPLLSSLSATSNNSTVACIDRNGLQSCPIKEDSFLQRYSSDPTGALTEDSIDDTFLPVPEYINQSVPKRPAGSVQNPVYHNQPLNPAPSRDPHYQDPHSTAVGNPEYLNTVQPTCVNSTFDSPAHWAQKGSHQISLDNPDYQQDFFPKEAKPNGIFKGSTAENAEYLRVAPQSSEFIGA

Row | SMILES | IC50 [1] [µM] | IC50 [2] [µM] | IC50 [3] [µM] | IC50 [4] [µM] | IC50 [5] [µM] | IC50 [6] [µM]
1 | CCc1cc(Nc2ncc(OC)c(Nc3ccc4nccnc4c3N(C)S(C)(=O)=O)n2)c(OC)nc1N1CCC(N2CCN(C)CC2)CC1 [Compound I-334] | ≤ 0.05 | ≤ 0.05 | ≤ 0.05 | ≤ 0.05 | ≤ 0.05 | ≤ 0.05
2 | CCc1cc(Nc2ncc(OC)c(Nc3ccc4nccnc4c3N(C)S(C)(=O)=O)n2)c(OC)cc1N1CCC(N(C)C)C1 (stereo not drawn) [Compound I-335] | ≤ 0.05 | ≤ 0.05 | ≤ 0.05 | ≤ 0.05 | ≤ 0.05 | ≤ 0.05
3 | CCOc1cnc(Nc2cc(C)c(N3CCC(N4CCN(C)CC4)CC3)cc2OC)nc1Nc1ccc2nccnc2c1N(C)S(C)(=O)=O [Compound I-336] | 0.05 to 0.5 | 0.05 to 0.5 | 0.05 to 0.5 | 0.5 to 2.5 | 0.05 to 0.5 | 0.05 to 0.5
4 | CCOc1cnc(Nc2cc(CC)c(N3CCC(N4CCN(C)CC4)CC3)cc2OC)nc1Nc1ccc2nccnc2c1N(C)S(C)(=O)=O [Compound I-337] | ≤ 0.05 | 0.05 to 0.5 | 0.05 to 0.5 | 0.05 to 0.5 | 0.05 to 0.5 | ≤ 0.05
5 | CCOc1cnc(Nc2cc(CC)c(N3CCC(N4CCN(C)CC4)CC3)nc2OC)nc1Nc1ccc2nccnc2c1N(C)S(C)(=O)=O [Compound I-338] | 0.05 to 0.5 | 0.05 to 0.5 | 0.05 to 0.5 | 0.5 to 2.5 | 0.05 to 0.5 | 0.05 to 0.5
6 | COc1cc(N2CCC(N3CCN(C)CC3)CC2)c(C)cc1Nc1nccc(Nc2ccc3nccnc3c2N(C)S(C)(=O)=O)n1 [Compound I-340] | ≤ 0.05 | 0.05 to 0.5 | ≤ 0.05 | 0.05 to 0.5 | ≤ 0.05 | ≤ 0.05
7 | CCc1cc(Nc2nccc(Nc3ccc4nccnc4c3N(C)S(C)(=O)=O)n2)c(OC)cc1N1CCC(N2CCN(C)CC2)CC1 [Compound I-341] | ≤ 0.05 | ≤ 0.05 | ≤ 0.05 | 0.05 to 0.5 | ≤ 0.05 | ≤ 0.05
8 | COc1cc(N2CCC(N3CCN(C)CC3)CC2)c(C(C)C)cc1Nc1nccc(Nc2ccc3nccnc3c2N(C)S(C)(=O)=O)n1 [Compound I-342] | 0.05 to 0.5 | 0.5 to 2.5 | 0.05 to 0.5 | 0.5 to 2.5 | 0.05 to 0.5 | 0.05 to 0.5
9 | COc1cc(N2CCC(N3CCN(C)CC3)CC2)c(C2CC2)cc1Nc1nccc(Nc2ccc3nccnc3c2N(C)S(C)(=O)=O)n1 [Compound I-343] | 0.05 to 0.5 | 0.05 to 0.5 | 0.05 to 0.5 | 0.05 to 0.5 | 0.05 to 0.5 | 0.05 to 0.5
10 | CCc1cc(Nc2nccc(Nc3ccc4nccnc4c3N(C)S(C)(=O)=O)n2)ccc1N1CCC(N2CCN(C)CC2)CC1 [Compound I-344] | ≤ 0.05 | ≤ 0.05 | ≤ 0.05 | 0.05 to 0.5 | ≤ 0.05 | 0.05 to 0.5
11 | COc1cc(N2CCC(N3CCN(C)CC3)CC2)c(C(C)C)cc1Nc1ncc(C#N)c(Nc2ccc3nccnc3c2N(C)S(C)(=O)=O)n1 [Compound I-345] | 0.05 to 0.5 | 0.05 to 0.5 | 0.05 to 0.5 | 0.05 to 0.5 | 0.05 to 0.5 | 0.05 to 0.5
12 | CCc1cc(Nc2ncc(C#N)c(Nc3ccc4nccnc4c3N(C)S(C)(=O)=O)n2)ccc1N1CCC(N2CCN(C)CC2)CC1 [Compound I-346] | ≤ 0.05 | ≤ 0.05 | ≤ 0.05 | 0.05 to 0.5 | ≤ 0.05 | ≤ 0.05
13 | CCc1cc(Nc2ncc(C3CC3)c(Nc3ccc4nccnc4c3N(C)S(C)(=O)=O)n2)c(OC)cc1C(=O)N1CCC(N2CCN(C)CC2)CC1 [Compound I-347] | 0.5 to 2.5 | 0.05 to 0.5 | 0.05 to 0.5 | 0.05 to 0.5 | 0.05 to 0.5 | 0.5 to 2.5
14 | CCc1cnc(Nc2ccc(N3CCC(N4CCN(C)CC4)CC3)c(F)c2F)nc1Nc1ccc2nccnc2c1N(C)S(C)(=O)=O [Compound I-348] | 0.05 to 0.5 | 0.05 to 0.5 | 0.05 to 0.5 | 0.05 to 0.5 | 0.05 to 0.5 | ≤ 0.05
15 | CCc1cnc(Nc2cc(F)c(N3CCC(N4CCN(C)CC4)CC3)c(F)c2)nc1Nc1ccc2nccnc2c1N(C)S(C)(=O)=O [Compound I-349] | 0.05 to 0.5 | ≤ 0.05 | ≤ 0.05 | ≤ 0.05 | ≤ 0.05 | ≤ 0.05
16 | CCc1cc(Nc2ncc(CC)c(Nc3ccc4nccnc4c3N(C)S(C)(=O)=O)n2)c(OC)cc1C(=O)N1CCC(N2CCN(C)CC2)CC1 [Compound I-350] | 0.05 to 0.5 | 0.05 to 0.5 | 0.05 to 0.5 | 0.05 to 0.5 | 0.05 to 0.5 | 0.05 to 0.5
17 | COc1ccc(N2CCC(C#N)CC2)cc1Nc1ncc(Br)c(Nc2ccc3nccnc3c2N(C)S(C)(=O)=O)n1 [Compound I-351] | 0.05 to 0.5 | 0.05 to 0.5 | 0.05 to 0.5 | 0.05 to 0.5 | ≤ 0.05 | 0.05 to 0.5
18 | COc1ccc(N2CCNCC2)cc1Nc1ncc(Br)c(Nc2ccc3nccnc3c2N(C)S(C)(=O)=O)n1 [Compound I-352] | 0.05 to 0.5 | 0.05 to 0.5 | 0.05 to 0.5 | 0.05 to 0.5 | ≤ 0.05 | 0.05 to 0.5
19 | CN1CCN(C2CCN(c3ccc(Nc4ncc(Br)c(Nc5ccc6nccnc6c5N(C)S(C)(=O)=O)n4)c(F)c3F)CC2)CC1 [Compound I-353] | 0.05 to 0.5 | ≤ 0.05 | ≤ 0.05 | ≤ 0.05 | ≤ 0.05 | ≤ 0.05
20 | CN1CCN(C2CCN(c3c(F)cc(Nc4ncc(Br)c(Nc5ccc6nccnc6c5N(C)S(C)(=O)=O)n4)cc3F)CC2)CC1 [Compound I-354] | 0.05 to 0.5 | ≤ 0.05 | ≤ 0.05 | ≤ 0.05 | ≤ 0.05 | ≤ 0.05
21 | CCc1cc(Nc2ncc(Br)c(Nc3ccc4nccnc4c3N(C)S(C)(=O)=O)n2)c(OC)cc1C(=O)N1CCC(N2CCN(C)CC2)CC1 [Compound I-355] | 0.05 to 0.5 | 0.05 to 0.5 | 0.05 to 0.5 | ≤ 0.05 | 0.05 to 0.5 | 0.05 to 0.5
22 | CN1CCN(C2CCN(c3ccc(Nc4ncc(Cl)c(Nc5ccc6nccnc6c5N(C)S(C)(=O)=O)n4)c(F)c3F)CC2)CC1 [Compound I-356] | 0.05 to 0.5 | 0.05 to 0.5 | ≤ 0.05 | ≤ 0.05 | ≤ 0.05 | 0.05 to 0.5
23 | CN1CCN(C2CCN(c3c(F)cc(Nc4ncc(Cl)c(Nc5ccc6nccnc6c5N(C)S(C)(=O)=O)n4)cc3F)CC2)CC1 [Compound I-357] | 0.05 to 0.5 | ≤ 0.05 | ≤ 0.05 | ≤ 0.05 | ≤ 0.05 | ≤ 0.05
24 | CCc1cc(Nc2ncc(Cl)c(Nc3ccc4nccnc4c3N(C)S(C)(=O)=O)n2)c(OC)cc1C(=O)N1CCC(N2CCN(C)CC2)CC1 [Compound I-358] | 0.5 to 2.5 | 0.05 to 0.5 | 0.05 to 0.5 | 0.05 to 0.5 | 0.05 to 0.5 | 0.05 to 0.5
25 | CN1CCN(C2CCN(c3ccc(Nc4ncc(Br)c(Nc5ccc6nccnc6c5NS(C)(=O)=O)n4)c(F)c3F)CC2)CC1 [Compound I-359] | ≤ 0.05 | ≤ 0.05 | ≤ 0.05 | ≤ 0.05 | ≤ 0.05 | ≤ 0.05
26 | CN1CCN(C2CCN(c3c(F)cc(Nc4ncc(Br)c(Nc5ccc6nccnc6c5NS(C)(=O)=O)n4)cc3F)CC2)CC1 [Compound I-360] | 0.05 to 0.5 | 0.05 to 0.5 | ≤ 0.05 | 0.05 to 0.5 | ≤ 0.05 | 0.05 to 0.5
27 | CCc1cc(Nc2ncc(Br)c(Nc3ccc4nccnc4c3NS(C)(=O)=O)n2)c(OC)cc1C(=O)N1CCC(N2CCN(C)CC2)CC1 [Compound I-361] | 0.5 to 2.5 | 0.5 to 2.5 | 0.5 to 2.5 | 0.5 to 2.5 | 0.05 to 0.5 | 0.5 to 2.5
28 | COc1ccc(N2CCC(O)CC2)cc1Nc1ncc(C)c(Nc2ccc3nccnc3c2N(C)S(C)(=O)=O)n1 [Compound I-362] | 0.05 to 0.5 | ≤ 0.05 | ≤ 0.05 | ≤ 0.05 | 0.05 to 0.5 | 0.05 to 0.5
